Measured values reported in EPA's ToxValDB 9.5 (doi:10.2903/j.efsa.2016.4453).
Where “and” joins values, the source holds several entries; their conditions need not be identical. Identical values can stand only once.

Columns and labels:
[1] = test system: Anas platyrhynchos; conditions: acute; oral; unspecified; mortality
[2] = test system: Apis mellifera; conditions: acute, mortality
[3] = test system: Canidae; conditions: chronic; duration: 1 years; oral; Dog Other; body weight
[4] = test system: Colinus virginianus
[5] = test system: Coturnix japonica; conditions: acute; oral; mortality
[6] = test system: Folsomia candida; conditions: chronic/long-term; duration: 28 days; reproduction
[7] = test system: Oncorhynchus mykiss; conditions: acute; duration: 96 hours; mortality
[8] = test system: Plant; conditions: chronic/long-term; duration: 6 weeks
[9] = test system: Rattus norvegicus
[10] = test system: Salmo trutta ssp. fario; conditions: chronic/long-term; duration: 28 days; growth
[11] = test system: Typhlodromus pyri; assay: LR50; higher = less toxic; conditions: not reported; mortality

With `COC(=O)c1ccc(I)cc1S(=O)(=O)[N-]C(=O)Nc1nc(C)nc(OC)n1.[Na+]` [Iodosulfuron methyl ester sodium salt] the LD50 [1] was over 2000 mg/kg, the LD50 ([2]; duration: 48 hours, dermal) was over 100 µg/piece and the LD50 ([2]; duration: 72 hours, oral, unspecified) was over 70 µg/piece. It also gave an NOAEL [3] of 7 mg/kg-day, an LD50 ([4]; acute, oral, mortality) of over 2000 mg/kg and an NOEL ([4]; reproduction developmental, reproduction) of 78 mg/kg-day. It also gave an LD50 [5] of over 2000 mg/kg, an NOEC [6] of 316 mg/kg and an LC50 [7] of 0.684 mg/L. For the same compound, the NOAEC [8] was 0.27 µg/L and 0.16 µg/L, the LD50 ([9]; acute, Wistar, mortality) was 2680 mg/kg and the NOAEL ([9]; chronic, duration: 2 years, F, Wistar, body weight) was 3.91 mg/kg-day. For the same compound, the NOAEL ([9]; chronic, duration: 2 years, M, Wistar, body weight) was 2.96 mg/kg-day, the NOAEL ([9]; chronic, duration: 2 years, body weight) was 3 mg/kg-day and the NOAEL ([9]; developmental, development) was 315 mg/kg-day. The NOEC [10] was 7.79 mg/L and the LR50 [11] was over 30.3 g/ha.
